The METLIN SMRT retention time set (Domingo-Almenara et al. 2019)

Assay: gradient 5% acetonitrile 3 min, to 50% in 2 min, to 85% in 15 min, held 3 min, 100 µL/min
Details: column: Zorbax Extend-C18 2.1 x 50 mm; eluents: water / acetonitrile, 0.1% formic acid
Summary of the method: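 Data were gathered over 3 months by HPLC coupled to a quadrupole time-of-flight mass spectrometer, operated in positive and negative ionization mode. Mixtures of ~100 pure standards ran on a Zorbax Extend-C18 column (2.1 × 50 mm, 1.8 μm) at 100 μL/min, with water and acetonitrile each containing 0.1% formic acid and dead and dwell volumes of 40 μL and 900 μL. Retention time was read from adduct peaks picked by computer and checked manually.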

SMILES | RP-LC retention time
CCn1cnc2cc(CNC(=O)c3cc(C)cc(C)c3)ccc21 | 646 s
Cn1cccc1-c1noc(C2CCN(C(=O)c3ccoc3)C2)n1 (centres undefined) | 784 s
CCCNC(=O)N1CCCCCCN(C)C(=O)CC1 | 662 s
Cc1cccc(NC(=O)C2CCN(S(=O)(=O)c3cc(-c4noc(C5CC5)n4)cs3)CC2)c1C | 1020 s
CCc1ccc(S(=O)(=O)N2CCc3nc(-c4ccc(OC)cc4)ncc3C2)cc1 | 1140 s
CCOc1ccc2nc(NC(=O)C3CCN(S(=O)(=O)c4cn(C)c(C)n4)CC3)sc2c1 | 772 s
CCOc1ccc(C(=O)N2CCC3(CC2)c2nccn2-c2ccccc2CN3C)cc1 | 632 s
CCOC(=O)C1CCc2sc(NC(=O)c3cc(-c4cccs4)[nH]n3)nc21 (centres undefined) | 835 s
O=C(Nc1cccn2nc(C3CC3)nc12)c1cccs1 | 788 s
CCC(=O)OCCN1C(=O)c2cccc3c(N4CCCCC4)ccc(c23)C1=O | 1170 s
CCS(=O)(=O)N1CC(=O)N(c2ccc(F)cc2C)C(C)(C(=O)NC2CCCCCC2)C1 (centres undefined) | 925 s
COc1cc(Cn2c(N)c(C#N)c3nc4ccccc4nc32)cc(OC)c1OC | 720 s
CCOc1ccc(C2Cn3nnc(-c4nc(-c5ccsc5)no4)c3CO2)cc1 (centres undefined) | 1150 s
Cc1nc(-c2nnc(NC(=O)c3cnccn3)o2)cs1 | 567 s
Cc1nn2c(nnc3c(=O)n(CCc4c[nH]c5ccccc45)ccc32)c1-c1ccc(F)cc1 | 954 s
COc1cc(C)c(C)cc1S(=O)(=O)Nc1ccc2c(c1)C(=O)NCCO2 | 678 s
COC1(C2=NCCN2)COc2ccccc2O1 (centres undefined) | 581 s
Cc1cc(C)n(CCNC(=O)Cc2ccc(SC(C)C)cc2)n1 | 755 s
Cc1cc(C)n2c(Nc3ccc(C(C)C)cc3)c(-c3ccc(Cl)cc3)nc2n1 | 985 s
CC(Cc1ccco1)NC(=O)c1ccc(N2CCCCC2)c(S(=O)(=O)N2CCCCC2)c1 (centres undefined) | 1190 s
COC(=O)c1ccc(NC(=O)N2CCCC2c2c(C)noc2C)cc1 (centres undefined) | 751 s
CC(C)CCNC(=O)C1CCCN(c2nnc3ccc(C(F)(F)F)cn23)C1 (centres undefined) | 829 s
Cc1ncn(CC(=O)Nc2cccc(Cl)c2)c(=O)c1C | 705 s
COc1cc2c(cc1OC)C(C(=O)NCCCN1CCCC1)C(c1cccs1)N(C)C2=O (centres undefined) | 606 s

SMILES | RP-LC retention time
CC(C)Sc1cc(NCCCO)c([N+](=O)[O-])c2nonc12 | 723 s
Cc1ccc(C)c(S(=O)(=O)N2CC=C(c3cn(C)c4ncccc34)CC2)c1 | 1070 s
Cc1ccc(-n2cc(C3=CCN(CC(=O)NCc4cccs4)CC3)cn2)cc1C | 735 s
CSc1ccc(-c2nc3cnccn3c2Nc2ccc(C(=O)N3CCOCC3)cc2)cc1 | 708 s
COc1ccc(OC)c(S(=O)(=O)N2CCCC(C(=O)N3CCC(C(N)=O)CC3)C2)c1 (centres undefined) | 635 s
Cc1ccc(-c2nc3ncccn3c2Nc2cc(C)ccc2C)cc1 | 825 s
COc1ccc(C2C(C(=O)Nc3ccccn3)c3cc(OC)c(OC)cc3C(=O)N2C)cc1OC (centres undefined) | 677 s
COc1ccc(NC(=O)N2[C@H]3CC[C@@H]2c2cnc(-c4ccc(F)cc4)nc2C3)cc1OC | 875 s
O=S(=O)(Nc1ccc(F)cc1)c1cccnc1Nc1ccc(F)c(F)c1 | 1080 s
Cc1ccccc1-c1nc(Cn2c(C)nc3onc(C)c3c2=O)c(C)o1 | 1120 s
O=S(=O)(NCC1CCCO1)c1cccc2cccnc12 (centres undefined) | 680 s
O=C(NCCN1CCCCCC1)C1CCN(c2cnc(N3CCCC3)nc2)CC1 | 569 s
CCCn1cc(S(=O)(=O)Nc2cc(C)cc(C)c2)c2cccnc21 | 946 s
COC(=O)C1CCN(c2ccnc3c2c(=O)n(C)c(=O)n3C)CC1 | 660 s
CCOC(=O)c1noc2nc(C)nc(N(C)Cc3ccccc3)c12 | 1060 s
Cc1nnc2n1CCC(NC(=O)c1cscn1)CC2 (centres undefined) | 542 s
CCCN1C(=O)C(CC(=O)NC2CCCCC2)Sc2ncccc21 (centres undefined) | 803 s
COc1ccc(S(=O)(=O)N2CCCC(Cn3cnc4cccnc43)C2)cc1OC (centres undefined) | 773 s
COc1ccc(OC)c(NC(=O)N(C)CCc2noc(-c3ccc(Cl)cc3)n2)c1 | 972 s
Cc1nc2cc(-c3noc(-c4cccc(Cl)c4)n3)ccc2o1 | 1210 s
CCc1ccc(S(=O)(=O)NCCc2sc(C)nc2C)s1 | 647 s
CCOC(=O)C1CCN([C@H]2CS(=O)(=O)C[C@@H]2S(=O)(=O)c2ccc(F)cc2)CC1 | 889 s
CS(=O)(=O)N1CCC(C(=O)NCC2(CO)CC2)CC1 | 536 s

The next lines start with the values.

RP-LC retention time | SMILES
715 s | COC[C@@H]1CN(S(=O)(=O)c2cccc(C#N)c2)C[C@H]1c1ccccn1
790 s | CCn1c(=O)c(C(=O)NCc2ccc(F)cc2)nc2cccnc21
920 s | Cn1cc(-c2cc3n(n2)CCCN3C(=O)CCC(=O)NCCC2=CCCCC2)c2ccccc21
738 s | O=c1ccc(N2CCC(NS(=O)(=O)c3cccnc3)C2)nn1CCOc1ccccc1 (centres undefined)
688 s | O=C(Cc1ccccc1F)NC1CCN(c2cc(-c3ccccc3)[nH]n2)C1 (centres undefined)
655 s | CC(=O)c1cccc(NC(=O)Nc2cccc(-c3ccc(N4CCOCC4)nn3)c2)c1
722 s | O=C(CC(=O)Nc1ccccc1F)Nc1ccc2nc3n(c(=O)c2c1)CCCCC3
634 s | CN(CC(=O)Nc1ccc(F)cc1)C(=O)C1CCN(c2cnn(C)c(=O)c2)C1 (centres undefined)
836 s | Cc1cccc(CN2CCN(C3CCN(C(=O)Nc4ccc5c(c4)OCO5)CC3)C2=O)c1
878 s | O=C(NCCc1ccsc1)C(=O)Nc1ccccc1F
657 s | CCN(CC)C(=O)Cn1c(C2CC(=O)N(C3CCCC3)C2)nc2ccccc21 (centres undefined)
719 s | Cc1cc(-c2ccc(C)c(S(=O)(=O)N3CCN(c4ccccn4)CC3)c2)on1
597 s | COc1ccc(CC(=O)Nc2c(-c3ccc(F)cc3)nc3ccccn23)cc1OC
998 s | CCN1C(=O)c2ccccc2Oc2ccc(C(=O)NCCc3ccc(Cl)cc3)cc21
782 s | Cc1ccc2[nH]c(C(=O)NC3CC3)cc2c1
769 s | O=C(CCNc1c(-c2cccc(F)c2)nc2cnccn12)NCc1cc(F)cc(F)c1
949 s | CC(C)c1ccc(NC(=O)C2CCN(C(=O)c3ncn4c3COC(c3ccc(F)cc3)C4)CC2)cc1 (centres undefined)
611 s | c1ccc(-c2nc(C3CC3)no2)c(OC2CN(Cc3ccncc3)C2)c1
638 s | CN1CCN(Cc2nc(-c3ccc(N(C)Cc4ccccc4)nc3)no2)CC1
794 s | O=C(CCCn1nnc2ccccc2c1=O)Nc1ccc(F)c(Cl)c1
590 s | Cc1cc(=O)n(CC(=O)Nc2ccccc2C)c(N)n1

RP-LC retention time | SMILES
825 s | Cn1cc(-c2cc3n(n2)CCC(=O)N3CC(=O)NCCc2c[nH]c3ccccc23)c2ccccc21
802 s | CCc1ccccc1NC(=O)C1CCCN(c2ncnc3c2nc2n3CCCCC2)C1 (centres undefined)
896 s | Cc1ccccc1NC(=O)CN1C(=O)CCc2cc(S(=O)(=O)N3CCCCC3C)ccc21 (centres undefined)
561 s | O=C(CCc1c(-c2ccccc2)nc2ccccn12)NC1CC1
663 s | CC(NC(=O)CC1CCCCC1)C(=O)Nc1nc2ccccc2[nH]1 (centres undefined)
778 s | Cc1c(Cl)cccc1NC(=O)C1CCN(S(=O)(=O)c2ccc3c(c2)NC(=O)CO3)CC1
792 s | Cc1ccnc(N2CCCC(C(=O)NCc3ccc(F)cc3Cl)C2)n1 (centres undefined)
1270 s | O=C(Nc1cc(F)ccc1F)C1CCCN(c2nc3ccccc3nc2C(F)(F)F)C1 (centres undefined)
695 s | Cc1ccn2cc(-c3ccc(NC(=O)c4ccc(Cl)cc4Cl)cc3)nc2n1
909 s | COc1ccc(-c2noc(CC3CCN(C(=O)c4cncc(Br)c4)CC3)n2)cc1
1410 s | CCN(C(=O)Nc1ccccc1[N+](=O)[O-])c1nc(-c2ccc(C)cc2)cs1
663 s | Cn1c(=O)c(C(=O)N2CCN(c3ccccn3)CC2)nn(-c2ccc(Cl)cc2)c1=O
722 s | CCCNC(=O)c1ncn2c1C(=O)N(C1CC1)C(C)(C(=O)NCc1ccccc1Cl)C2 (centres undefined)
1050 s | COc1cccc(CC(=O)N2CCc3nc(-c4ccc(Cl)cc4)ncc3C2)c1
803 s | CC(NC(=O)C1CCN(c2cnn(Cc3ccccc3)c(=O)c2)CC1)c1ccccc1 (centres undefined)
940 s | O=C(NCc1ccccc1)C1CCCCN1S(=O)(=O)c1ccc(F)cc1 (centres undefined)
664 s | CC1CN2C=NC(N3CCN(C(=O)Nc4cc(F)cc(F)c4)CC3)=CC2=N1 (centres undefined)
788 s | Cc1nn(C(C)C(=O)NCCc2ccco2)c(=O)c2nn(-c3ccccc3)c(C)c12 (centres undefined)
716 s | Cc1ccc(Nc2c(-c3ccc(N4CCOCC4)cc3)nc3ncccn23)cc1C
750 s | Cc1ccc(NC(=O)N2CCC(c3nc(CCNC(=O)C(C)C)cs3)CC2)cc1
698 s | CCC(=O)N1CCCN(C2=NS(=O)(=O)C(c3ccc(F)cc3)=C2C)CC1
